Measurements published in ChEMBL document CHEMBL1137771, “Non-nucleoside inhibitors of HCV polymerase NS5B. Part 2: Synthesis and structure-activity relationships of benzothiazine-substituted quinolinediones” (Bioorg Med Chem Lett, 2009).
≈ marks a conversion by molar mass, not a printed value.

Assays:
[1] = system: Hepatitis C virus; test: Antiviral activity against HCV genotype 1b isolate con1 infected in human 2209-23 cells assessed as inhibition of [3H]thymidine incorporation into DNA by scintillation proximity assay in presence of 5% fetal bovine serum; format: functional, organism-based, Hepacivirus hominis; settings: isolate Con1, 2209-23
[2] = Cytotoxicity against human 2209-23 cells by WST1 assay; format: cell-based
[3] = Dissociation constant, pKa of the compound; format: physicochemical
[4] = system: Hepatitis C virus; test: Ratio of EC50 for HCV genotype 1b isolate con1 in presence of human serum albumin to EC50 for HCV genotype 1b isolate con1 in presence of fetal bovine serum; format: functional, Hepacivirus hominis
[5] = system: Hepatitis C virus; test: Inhibition of HCV genotype 1b isolate con1 NS5B polymerase assessed as incorporation of radiolabeled nucleotide into RNA product; set-up: species or system Hepacivirus hominis
[6] = system: Hepatitis C virus; test: Antiviral activity against HCV genotype 1b isolate con1 infected in human 2209-23 cells assessed as inhibition of [3H]thymidine incorporation into DNA by scintillation proximity assay in presence of 40% human serum albumin; format: functional, organism-based, Hepacivirus hominis; settings: isolate Con1, 2209-23
[7] = system: Hepatitis C virus; test: Antiviral activity against HCV genotype 1b infected in human HuH7 cells by replicon assay; format: functional, organism-based, Hepacivirus hominis; settings: Huh-7
[8] = Solubility of the compound; format: physicochemical
[9] = Oral bioavailability in rat; format: ADME, organism-based; settings: in vivo

Row | EC50 [1] [nM] | pKa [3] | IC50 [5] [nM] | EC50 [6] [nM] | EC50 [7] [nM] | solubility [8] [µg/mL] | bioavailability [9] [%] | SMILES | CC50 [2] [µM] | fold change (FC) [4]
1 | 14 | 3.8 |  |  |  |  |  | CS(=O)(=O)Nc1ccc2c(c1)S(=O)(=O)C=C(c1c(O)c3cc(F)ccc3n(Cc3ccc(F)cc3)c1=O)N2 | > 50 | 13
2 | 100 |  | 10 | 528 |  |  |  | COc1cc(Cn2c(=O)c(C3=CS(=O)(=O)c4cc(NS(C)(=O)=O)ccc4N3)c(O)c3cc(F)ccc32)ccc1F | > 50 | 9.2
3 | 143 |  | 5 | 2050 |  |  |  | COc1ccc2c(c1)c(O)c(C1=CS(=O)(=O)c3cc(NS(C)(=O)=O)ccc3N1)c(=O)n2Cc1ccc(F)cc1 | > 50 | 14.3

Second part, the compound before the results:

Row | SMILES | EC50 [1] [nM] | pKa [3] | IC50 [5] [nM] | EC50 [6] [nM] | EC50 [7] [nM] | solubility [8] [µg/mL] | bioavailability [9] [%] | CC50 [2] [µM] | fold change (FC) [4]
4 | CS(=O)(=O)Nc1ccc2c(c1)S(=O)(=O)C=C(c1c(O)c3cc(F)ccc3n(Cc3ccccc3)c1=O)N2 | 44 |  | 7 | 406 |  |  |  | > 50 | 9.2
5 | O=c1c(C2=CS(=O)(=O)c3ccccc3N2)c(O)c2cc(F)ccc2n1CCC1CC1 |  |  |  |  | 1200 | 8 (≈ 18.8 µM) | 79 |  | 
6 | COC(C)(C)CCn1c(=O)c(C2=CS(=O)(=O)c3cc(NS(C)(=O)=O)ccc3N2)c(O)c2cc(F)ccc21 | 47 |  | 10 | 1200 |  |  |  | > 50 | 9.2
7 | CS(=O)(=O)Nc1ccc2c(c1)S(=O)(=O)C=C(c1c(O)c3cc(F)ccc3n(Cc3ccncc3)c1=O)N2 | 64 |  | 11 | 688 |  |  |  | > 50 | 9.2
